Measurements from PubChem BioAssay (NCI).
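These data come from cells grown in 96-well plates and exposed to compound for 48 hours at five concentrations. GI50 is the concentration that inhibits growth by half. TGI is the concentration that stops growth completely.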

These compounds were tested on SF-295 CNS (assay: growth of human tumour cells (NCI), 48 h).

Work on O=C([CH-]C(=O)c1ccccc1)c1ccccc1.O=C([CH-]C(=O)c1ccccc1)c1ccccc1.[OH-].[OH-].[Ti+4] yielded a GI50 of 30.4 µM.

Going from O=C([CH-]C(=O)c1ccccc1)c1ccccc1.O=C([CH-]C(=O)c1ccccc1)c1ccccc1.[OH-].[OH-].[Ti+4] to O=C(N/N=C/c1cc(Cl)cc(Cl)c1O)c1ccccc1O, the TGI falls from greater than 100 µM to 11.3 µM.

COc1cc(-c2cc(-c3cc([N+](=O)[O-])c(/C=N/NC(=O)c4ccncc4)o3)ccc2OC)ccc1C and Fc1cccc(C2SCc3nc4ccccc4n32)c1F (stereo not given) cannot be ordered by TGI: greater than 100 µM for the first, greater than 100 µM for the second.

What follows are compounds tested on MDA-N (assay: growth of human tumour cells (NCI), 48 h).

For Cc1cc(N(CCC#N)CCC#N)ccc1/C=C1N=C(/C=C\c2ccccc2)N(c2ccc(Cl)cc2)C\1=O, the TGI was greater than 100 µM.

What follows are compounds tested on NCI-H226 lung (assay: growth of human tumour cells (NCI), 48 h).

Cn1c2ccccc2n2c(=O)c3c(c(C#N)c12)CCCC3 and Fc1cccc(C2SCc3nc4ccccc4n32)c1F (stereo not given) cannot be ordered by TGI: greater than 100 µM for the first, greater than 100 µM for the second.

Cc1cc(N(CCC#N)CCC#N)ccc1/C=C1N=C(/C=C\c2ccccc2)N(c2ccc(Cl)cc2)C\1=O and COc1cc(-c2cc(-c3cc([N+](=O)[O-])c(/C=N/NC(=O)c4ccncc4)o3)ccc2OC)ccc1C cannot be ordered by TGI: greater than 100 µM for the first, greater than 100 µM for the second.

Compound O=C([CH-]C(=O)c1ccccc1)c1ccccc1.O=C([CH-]C(=O)c1ccccc1)c1ccccc1.[OH-].[OH-].[Ti+4] has a TGI greater than 100 µM.

O=C([CH-]C(=O)c1ccccc1)c1ccccc1.O=C([CH-]C(=O)c1ccccc1)c1ccccc1.[OH-].[OH-].[Ti+4] was tested, and the GI50 was 58 µM.

Each compound was assayed on M14 melanoma (assay: growth of human tumour cells (NCI), 48 h).

Cn1c2ccccc2n2c(=O)c3c(c(C#N)c12)CCCC3 and Fc1cccc(C2SCc3nc4ccccc4n32)c1F (stereo not given) cannot be ordered by TGI: greater than 100 µM for the first, greater than 100 µM for the second.

Cc1cc(N(CCC#N)CCC#N)ccc1/C=C1N=C(/C=C\c2ccccc2)N(c2ccc(Cl)cc2)C\1=O and COc1cc(-c2cc(-c3cc([N+](=O)[O-])c(/C=N/NC(=O)c4ccncc4)o3)ccc2OC)ccc1C cannot be ordered by TGI: greater than 48.2 µM for the first, greater than 100 µM for the second.

Compared with O=C([CH-]C(=O)c1ccccc1)c1ccccc1.O=C([CH-]C(=O)c1ccccc1)c1ccccc1.[OH-].[OH-].[Ti+4], O=C(N/N=C/c1cc(Cl)cc(Cl)c1O)c1ccccc1O is lower in TGI: greater than 100 µM for the first, 4.07 µM for the second.

Work on O=C([CH-]C(=O)c1ccccc1)c1ccccc1.O=C([CH-]C(=O)c1ccccc1)c1ccccc1.[OH-].[OH-].[Ti+4] yielded a GI50 of 36.2 µM.

The compounds below were run on HCC-2998 colon (assay: growth of human tumour cells (NCI), 48 h).

Cn1c2ccccc2n2c(=O)c3c(c(C#N)c12)CCCC3 and Fc1cccc(C2SCc3nc4ccccc4n32)c1F (stereo not given) cannot be ordered by TGI: greater than 100 µM for the first, greater than 100 µM for the second.

Cc1cc(N(CCC#N)CCC#N)ccc1/C=C1N=C(/C=C\c2ccccc2)N(c2ccc(Cl)cc2)C\1=O and COc1cc(-c2cc(-c3cc([N+](=O)[O-])c(/C=N/NC(=O)c4ccncc4)o3)ccc2OC)ccc1C cannot be ordered by TGI: greater than 100 µM for the first, greater than 100 µM for the second.

Compared with O=C([CH-]C(=O)c1ccccc1)c1ccccc1.O=C([CH-]C(=O)c1ccccc1)c1ccccc1.[OH-].[OH-].[Ti+4], O=C(N/N=C/c1cc(Cl)cc(Cl)c1O)c1ccccc1O is lower in TGI: greater than 100 µM for the first, 14.6 µM for the second.

O=C([CH-]C(=O)c1ccccc1)c1ccccc1.O=C([CH-]C(=O)c1ccccc1)c1ccccc1.[OH-].[OH-].[Ti+4] showed a GI50 greater than 100 µM.

These compounds were tested on IGROV1 ovarian (assay: growth of human tumour cells (NCI), 48 h).

Cn1c2ccccc2n2c(=O)c3c(c(C#N)c12)CCCC3 and Fc1cccc(C2SCc3nc4ccccc4n32)c1F (stereo not given) cannot be ordered by TGI: greater than 100 µM for the first, greater than 100 µM for the second.

Cc1cc(N(CCC#N)CCC#N)ccc1/C=C1N=C(/C=C\c2ccccc2)N(c2ccc(Cl)cc2)C\1=O and COc1cc(-c2cc(-c3cc([N+](=O)[O-])c(/C=N/NC(=O)c4ccncc4)o3)ccc2OC)ccc1C cannot be ordered by TGI: greater than 100 µM for the first, greater than 100 µM for the second.

Going from O=C([CH-]C(=O)c1ccccc1)c1ccccc1.O=C([CH-]C(=O)c1ccccc1)c1ccccc1.[OH-].[OH-].[Ti+4] to O=C(N/N=C/c1cc(Cl)cc(Cl)c1O)c1ccccc1O, the TGI falls from greater than 100 µM to 19.2 µM.

With O=C([CH-]C(=O)c1ccccc1)c1ccccc1.O=C([CH-]C(=O)c1ccccc1)c1ccccc1.[OH-].[OH-].[Ti+4] the GI50 was greater than 100 µM.

What follows are compounds tested on SNB-19 CNS (assay: growth of human tumour cells (NCI), 48 h).

Cn1c2ccccc2n2c(=O)c3c(c(C#N)c12)CCCC3 and Fc1cccc(C2SCc3nc4ccccc4n32)c1F (stereo not given) cannot be ordered by TGI: greater than 100 µM for the first, greater than 100 µM for the second.

Cc1cc(N(CCC#N)CCC#N)ccc1/C=C1N=C(/C=C\c2ccccc2)N(c2ccc(Cl)cc2)C\1=O and COc1cc(-c2cc(-c3cc([N+](=O)[O-])c(/C=N/NC(=O)c4ccncc4)o3)ccc2OC)ccc1C cannot be ordered by TGI: greater than 100 µM for the first, greater than 100 µM for the second.

First: O=C([CH-]C(=O)c1ccccc1)c1ccccc1.O=C([CH-]C(=O)c1ccccc1)c1ccccc1.[OH-].[OH-].[Ti+4]
Second: O=C(N/N=C/c1cc(Cl)cc(Cl)c1O)c1ccccc1O
The TGI of the first is higher: greater than 100 µM for the first, 43.7 µM for the second.

O=C([CH-]C(=O)c1ccccc1)c1ccccc1.O=C([CH-]C(=O)c1ccccc1)c1ccccc1.[OH-].[OH-].[Ti+4] was tested, and the GI50 was 39.9 µM.

These compounds were tested on SK-MEL-28 melanoma (assay: growth of human tumour cells (NCI), 48 h).

Cn1c2ccccc2n2c(=O)c3c(c(C#N)c12)CCCC3 and Cc1cc(N(CCC#N)CCC#N)ccc1/C=C1N=C(/C=C\c2ccccc2)N(c2ccc(Cl)cc2)C\1=O cannot be ordered by TGI: greater than 100 µM for the first, greater than 100 µM for the second.

Compared with COc1cc(-c2cc(-c3cc([N+](=O)[O-])c(/C=N/NC(=O)c4ccncc4)o3)ccc2OC)ccc1C, O=C(N/N=C/c1cc(Cl)cc(Cl)c1O)c1ccccc1O is lower in TGI: greater than 100 µM for the first, 25.2 µM for the second.

The compounds below were run on HOP-18 NSCLC (assay: growth of human tumour cells (NCI), 48 h).

Cc1cc(N(CCC#N)CCC#N)ccc1/C=C1N=C(/C=C\c2ccccc2)N(c2ccc(Cl)cc2)C\1=O gave a TGI greater than 100 µM.
